According to US20210137941A1 (ZARODEX THERAPEUTICS LIMITED, priority 2018, published 2021):
Where “and” joins values, the source holds several entries; their conditions need not be identical. Identical values can stand only once.

How the values were obtained:
[1] = system: specific antibody titres against Haemophilus influenzae, Tetanus and Pneumococcal capsular polysaccharide; set-up: species or system human; settings: in vivo
[2] = system: circulating B cell subsets; assay: Second observational study (interim analysis): peripheral blood B cell subsets by FACS; type: in vivo, human; settings: interim data
[3] = system: bone marrow B cell subsets; assay: Wild type mouse study: bone marrow B cell immunophenotyping by flow cytometry; type: in vivo, C57BL/6 mice
[4] = system: splenic B cell and T cell populations; assay: Wild type mouse study: spleen immunophenotyping by flow cytometry; type: in vivo, C57BL/6 mice
[5] = system: circulating immunoglobulins; assay: Wild type mouse study: circulating immunoglobulin profile by ELISA; type: in vivo, C57BL/6 mice; settings: FIG. 24
[6] = system: anti-collagen IgG1 and IgG2a; assay: CIA model: serum anti-collagen immunoglobulin by ELISA; type: in vivo, DBA/1 mice; settings: FIG. 33
Description: (§1) All experiments were approved by the Clinical Medicine Animal Welfare and Ethical Review Body (AWERB) and by the UK Home Office.
(§2) At the end of the experimental period, mice were humanely euthanised and bled by cardiac puncture to obtain blood samples for serum separation, storage at −80° C. and subsequent measurement of specific anti-collagen immunoglobulin (IgG1 and IgG2a isotypes) by ELISA. In parallel, spleen and inguinal lymph nodes were harvested for evaluation of cellular composition across these compartments using multi-laser flow cytometric detection and analysis. Numbers of B cell subsets in spleen and lymph nodes were determined by FACS.
(§3) Data were analyzed by one-way ANOVA with Tukey's or Dunnett's multiple comparison test or two-way ANOVA with Tukey's multiple comparison test as appropriate. All calculations were made using GraphPad Prism software. A P value less than 0.05 was considered significant.

[7] = system: T follicular helper cells (CD4+ PD1+ CXCR5+); assay: CIA model: T follicular helper cells in spleen and lymph node by FACS; type: in vivo, DBA/1 mice
Description: as §1, §2, §3

Structure (SMILES): CN1CCN(C2=Nc3cc(Cl)ccc3Nc3ccccc32)CC1 [Clozapine, clozapine]
- % of patients with IgG-Haemophilus B <1.0 mcg/ml (below protective level) [1]: 51% and 51.2% and 51.1% and 49.4% and 50.9%
- % of patients with IgG-Pneumococcus <35 mg/L [1]: 39.0% and 38.3% and 37.9% and 45.6%
- % of patients with IgG-Pneumococcus <50 mg/L (below protective level) [1]: 52.1% and 50.6% and 54.4%
- % of patients with IgG-Tetanus <0.1 IU/ml (below protective level) [1]: 10.6% and 11.5% and 12.3%
- IgM-Pneumococcus [1]: 58.5 U/L and 59.8 U/L and 60.4 U/L and 61.6 U/L
- Pneumococcal IgA level [1]: 31 U/ml
- Pneumococcal IgM level [1]: 58.5 U/ml
- pneumococcal IgA level [1]: 31.0 U/L
- overall CD19+ B cell numbers vs control ([2]; FIG. 8A-B): not significantly different
- naive (CD19+CD27-) B cells as a proportion of total CD19+ B cells ([2]; FIG. 9A-C): Small increase
- overall memory B cell pool ([2]; FIG. 10A-C): without perturbation
- IgM hi IgD lo memory B cell subpopulation ([2]; FIG. 12A-C): without perturbation
- circulating levels of marginal zone B cells ([2]; FIG. 14A-C): No significant difference
- class-switched memory B cells (CD27+ IgM- IgD- as % B) ([2]; P=0.06 vs control, FIG. 11A-C): Strong trends to a specific reduction
- levels of plasmablasts ([2]; P=0.07 vs control clozapine naive, FIG. 15A-C): Strong trends to reduction
- pro-B cell fraction in bone marrow ([3]; 10 mg/kg IP, 21 days, FIG. 18): without any change
- proportion of pre-pro B cells in bone marrow ([3]; 10 mg/kg IP, 21 days, FIG. 18): significant increase
- reduction in the percentage of long-lived plasma cells in the bone marrow compared to control ([3]; 5 and 10 mg/kg IP, 21 days, significant, FIG. 20): ~30%
- percentage of immature B cells in bone marrow ([3]; IP 21 days, FIG. 19): reduction
- overall B cells in the bone marrow ([3]; any dose (2.5, 5, 10 mg/kg IP, 21 days), FIG. 18): No overall reduction
- pre-B cells in bone marrow ([3]; dose-dependent, significant vs control from 2.5 mg/kg, IP 21 days, FIG. 19): reduction
- percentage of proliferating pre-B cells in bone marrow ([3]; reaching significance for the 5 mg/kg dose, FIG. 19): diminished
- percentage of splenic B cells (B220+TCR-beta-) of total live splenocytes ([4]; 5 mg/kg and 10 mg/kg IP, 21 days, FIG. 21): significantly lower percentage
- other splenic cell populations (B220-TCR-beta-) ([4]; FIG. 21): No effect
- percentage of splenic T cells ([4]; FIG. 21): reciprocal increase
- splenic follicular B cell subset ([4]; FIG. 22): no specific reductions
- splenic marginal zone B cell subset ([4]; FIG. 22): no specific reductions
- proportion of T2 B cells in the spleen ([4]; across all doses, FIG. 22): small increase
- activated T cells (B220+TCR-beta+) in spleen vs control ([4]; clozapine 2.5-10 mg/kg, haloperidol 1 mg/kg, IP 21 days, FIG. 21): reduced in dose-dependent fashion
- transitional stage 1 (T1) B cells in the spleen ([4]; including at the 2.5 mg/kg dose, FIG. 22): mildly reduced proportion
- germinal centre cells in the spleen vs control or haloperidol ([4]; steady state, FIG. 22): no differences observed
- other circulating immunoglobulin isotype classes [5]: No other isotype classes were affected
- circulating IgA levels compared to control ([5]; clozapine 5 and 10 mg/kg, haloperidol 1 mg/kg, IP 21 days): reduction
- serum anti-type II collagen IgG1 reduction ([6]; 10 mg/kg from day 15): reaching statistical significance
- serum anti-type II collagen IgG2a ([6]; 5 or 10 mg/kg from day 1 or day 15, single time point): no significant impact
- serum anti-type II collagen IgG1 ([6]; across all doses tested): nominal reductions
- proportions of CD4+PD1+CXCR5+ T follicular helper cells in lymph node or spleen ([7]; 5 or 10 mg/kg from day 1 or day 15, FIG. 34): did not significantly affect
- expression of PD-1 (MFI) in lymph node T follicular helper cells ([7]; all doses and time points, FIG. 35): Reduced expression
- CXCR5 expression (MFI) on T follicular helper cells ([7]; dosed from day 1, lymph node and spleen, FIG. 36): significant reductions
- expression of CCR7 on germinal centre resident T follicular helper cells ([7]; lymph node and spleen, FIG. 37): reduction in expression
- admitted to hospital with infection (clozapine group (vs 0.06 controls)): 0.12 per patient year
- Admission frequency in 12-month period, infection-related: admissions (clozapine-treated patients): 15
- Admission frequency in 12-month period, infection-related: patients (clozapine-treated patients): 10 patients
